# According to PubChem BioAssay AID2060493 (Molecular Pharmacology Branch, DTP, NCI, 2025):
# Test system: 616215-338-R-J1-PDC tumor spheroids, viability
# Experiment: Anticancer human tumor 616215-338-R-J1-PDC patient-derived colon adenocarcinoma cell line growth inhibition [GQUAD]
# Conditions: spheroids with HUVEC and MSC; for IC50: curve of first compound; for viability, T/C: stronger effect = lower value
# Description: DNA G-quadruplex Stabilizer Agents in Combinations in Complex Spheroids
# A high-throughput screen of multi-cell type tumor spheroids was designed to identify active combinations of DNA G-quadruplex stabilizer agents and targeted small molecules. Complex spheroids include a stromal component modeled by human endothelial cells (HUVEC) and fibroblasts modeled by human mesenchymal stem cells (MSCs). The concentration ranges selected for each drug and investigational agent were based upon clinically achievable concentrations if the clinical Cmax of the agent was known.
# Compounds. The drugs and investigational agents: pidnarulex (CX-5461; NSC782164), APTO-253 (NSC789042), BRACO-19 (NSC847499), peposertib (NSC802822), ceralasertib (NSC780249), elimusertib (NSC800525), camonsertib (NSC841442), AZD-1390 (NSC803789), olaparib (NSC753686), talazoparib (NSC767125), ART-558 (NSC835418), sotorasib (NSC818433), MRTX-1133 (NSC836407), SN-38 (NSC673596), topotecan (NSC609699), etoposide (NSC141540), doxorubicin (NSC123127), gemcitabine (NSC613327), 5-fluorouracil (NSC19893), paclitaxel (NSC125973), vemurafenib (NSC761431), panobinostat (NSC761190), R-306465 (JNJ-16241199; NSC773264), adavosertib (NSC754352), TP-3654 (NSC805149), carboplatin (NSC241240), KSQ-4279 (NSC840948), and staurosporine (NSC755774) were obtained from the National Cancer Institute (NCI) Developmental Therapeutics Program Chemical Repository (34). The FDA-approved anticancer drug set is available from the NCI Developmental Therapeutics Program. […] The stock solutions were prepared in dimethyl sulfoxide (DMSO, Sigma-Aldrich, St. Louis, MO, cat. D2650) at 800-fold the tested concentration and stored at -70 degrees C prior to their use. All drugs and investigational agents were tested over a range starting from a high concentration at or near the clinical Cmax and decreasing in half-log increments. If the clinical Cmax for an agent had not been determined, the highest concentration tested was 10 microM.
# 2.3 Cell Culture. All cells were maintained in an incubator at 37 degrees C and 5% CO2 with 95% humidity. The PDC lines were cultured according to standard operating procedures established by the NCI PDMR. All PDCs were thawed and cultured in Matrigel-coated flasks prepared with a working solution of 1X Ham's F-12 nutrient mix, without supplementation (Invitrogen, cat. 11765054), 100 U/mL penicillin-streptomycin (Invitrogen, cat. 15140122), and 2.5% Matrigel (Corning Inc., cat. 354248) for the first three passages. The 857933-349-R-J2-PDC line was cultured in 6C/Colon 1B media, which includes advanced DMEM/F-12 (Thermo Fisher Scientific, cat. 12634028), 10 mM HEPES (Thermo Fisher Scientific, cat. 15630080), 1X GlutaMAX supplement (Thermo Fisher Scientific, cat. 35050061), 0.1 mg/mL primocin (InvivoGen, cat. ant-pm-2), 10% defined fetal bovine serum, heat inactivated (HyClone Laboratories Inc., cat. SH30070.03HI), 50% L-WRN conditioned media (ATCC, cat. CRL-3276), 1.25 mM N-Acetyl-L-cysteine (Sigma-Aldrich, cat. A9165), 10 mM nicotinamide (Sigma-Aldrich, cat. N0636), 1X B-27 supplement (Thermo Fisher Scientific, cat. 17504044), 1X N-2 supplement (Thermo Fisher Scientific, cat. 17502048), 10 microM Y-27632 dihydrochloride (Tocris Bioscience, cat. 1254), and 50 ng/mL human EGF recombinant protein (Thermo Fisher Scientific, cat. PHG0311). The 485176-168-R4-J1-PDC line was cultured in Panc media, which includes all 6C/Colon 1B media components plus 100 ng/mL human FGF-10 (Thermo Fisher Scientific, cat. 100-26), 500 nM SB-431542 (Selleckchem, cat. S1067), and gastrin (Tocris, cat. 3006).
# […]
# 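Also: spheroids exposed to agents for 7 days before readout.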
# 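For viability, T/C in this document: percent viability relative to DMSO vehicle control wells taken as 100%.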
compound,measurement,setting,value
COc1ncnc(C2CC2)c1-c1ncc2cnn(Cc3ccc(-c4nc(C(F)(F)F)cn4C(C)C)cc3)c2n1 + Cc1[nH]c2ccc(F)cc2c1-c1nc2c3cccnc3c3ncccc3c2[nH]1,IC50,second compound 0.0316 µM,> 10 µM
same,IC50,second compound 0.1 µM,> 10 µM
same,IC50,second compound 0.316 µM,> 10 µM
same,IC50,second compound 1 µM,> 10 µM
same,IC50,second compound 3.16 µM,> 10 µM
same,IC50,second compound 10 µM,> 10 µM
same,"viability, T/C","second compound 0.0316 µM, first compound 0.0316 µM",109%
same,"viability, T/C","second compound 0.0316 µM, first compound 0.1 µM",98.5%
same,"viability, T/C","second compound 0.0316 µM, first compound 0.316 µM",106%
same,"viability, T/C","second compound 0.0316 µM, first compound 1 µM",91.9%
same,"viability, T/C","second compound 0.0316 µM, first compound 3.16 µM",106%
same,"viability, T/C","second compound 0.0316 µM, first compound 10 µM",101%
same,"viability, T/C","second compound 0.1 µM, first compound 0.0316 µM",108%
same,"viability, T/C","second compound 0.1 µM, first compound 0.1 µM",93.7%
same,"viability, T/C","second compound 0.1 µM, first compound 0.316 µM",96.1%
same,"viability, T/C","second compound 0.1 µM, first compound 1 µM",98.2%
same,"viability, T/C","second compound 0.1 µM, first compound 3.16 µM",100%
same,"viability, T/C","second compound 0.1 µM, first compound 10 µM",105%
same,"viability, T/C","second compound 0.316 µM, first compound 0.0316 µM",106%
same,"viability, T/C","second compound 0.316 µM, first compound 0.1 µM",96.3%
same,"viability, T/C","second compound 0.316 µM, first compound 0.316 µM",96.5%
same,"viability, T/C","second compound 0.316 µM, first compound 1 µM",99.8%
same,"viability, T/C","second compound 0.316 µM, first compound 3.16 µM",103%
same,"viability, T/C","second compound 0.316 µM, first compound 10 µM",107%
same,"viability, T/C","second compound 1 µM, first compound 0.0316 µM",100%
same,"viability, T/C","second compound 1 µM, first compound 0.1 µM",97.9%
same,"viability, T/C","second compound 1 µM, first compound 0.316 µM",96.5%
same,"viability, T/C","second compound 1 µM, first compound 1 µM",101%
same,"viability, T/C","second compound 1 µM, first compound 3.16 µM",108%
same,"viability, T/C","second compound 1 µM, first compound 10 µM",99.8%
same,"viability, T/C","second compound 3.16 µM, first compound 0.0316 µM",101%
same,"viability, T/C","second compound 3.16 µM, first compound 0.1 µM",104%
same,"viability, T/C","second compound 3.16 µM, first compound 0.316 µM",94.7%
same,"viability, T/C","second compound 3.16 µM, first compound 1 µM",105%
same,"viability, T/C","second compound 3.16 µM, first compound 3.16 µM",109%
same,"viability, T/C","second compound 3.16 µM, first compound 10 µM",104%
same,"viability, T/C","second compound 10 µM, first compound 0.0316 µM",97%
same,"viability, T/C","second compound 10 µM, first compound 0.1 µM",90.1%
same,"viability, T/C","second compound 10 µM, first compound 0.316 µM",98.4%
same,"viability, T/C","second compound 10 µM, first compound 1 µM",98.4%
same,"viability, T/C","second compound 10 µM, first compound 3.16 µM",98.7%
same,"viability, T/C","second compound 10 µM, first compound 10 µM",96.3%
